Results: patent US20250019385A1, “SPIROCYCLIC ANNULATED 2-AMINO-3-CYANO THIOPHENES AND DERIVATIVES FOR THE TREATMENT OF CANCER” (Boehringer Ingelheim International GmbH, priority 2023, published 2025)
Values after ≈ are worked out from the molar mass of the structure shown.

Molecular target: KRAS (G12C)::SOS1 protein-protein interaction (Homo sapiens (Human), UniProt P01116, C118S/C51S/C80L/G12C)
Assay: KRAS::SOS1 AlphaScreen binding assay (KRAS G12C)
Settings: GDP
Text: This assay can be used to examine the potency with which compounds according to the invention binding to (mutated) KRAS inhibit the protein-protein interaction between SOS1 and (mutated) KRAS e.g. KRAS G12C, KRAS G12D. […] Low IC50 values in this assay setting are indicative of strong inhibition of protein-protein interaction between SOS1 and KRAS:
These assays measure the inhibitory effect of compounds on KRAS mutant protein-protein interactions using the Alpha Screen technology by Perkin Elmer.
The following (mutant) enzyme forms of KRAS and interacting proteins are used in these assays at the given concentrations:
KRAS (G12C) 1-169, N-terminal 6His-tag for purification, cleaved off, C-terminal avi-tag, biotinylated, mutations: C51S, C80L, C118S (in house); final assay concentration 7.5 nM and SOS1 564-1049, N-terminal 229 GST-tag, TEV cleavage site (Viva Biotech Ltd); final assay concentration 5 nM;
Test compounds dissolved in DMSO are dispensed onto assay plates (Proxiplate 384 PLUS, white, PerkinElmer; 6008289) using an Access Labcyte Workstation with the Labcyte Echo 55x. For the chosen highest assay concentration of 100 μM, 150 nL of compound solution are transferred from a 10 mM DMSO compound stock solution. A series of eleven fivefold dilutions per compound are transferred to the assay plate, compound dilutions are tested in duplicates. DMSO are added as backfill to a total volume of 150 nL.
The assays run on a fully automated robotic system in a darkened room below 100 Lux. To 150 nl of compound dilution 10 μl of a mix including KRAS mutant protein, SOS1 (final assay concentrations see above) and GDP nucleotide (Sigma G7127; final assay concentration 10 μM) in assay buffer (1×PBS, 0.1% BSA, 0.05% Tween 20) are added into columns 1-24.
After 30 minutes incubation time 5 μl of Alpha Screen bead mix in assay buffer are added into columns 1-23. Bead mix consists of AlphaLISA Glutathione Acceptor Beads (PerkinElmer, Cat No AL109) and AlphaScreen Streptavidin Donor Beads (PerkinElmer Cat No 6760002) in assay buffer at a final assay concentration of 10 μg/mL each.
Plates are kept at room temperature in a darkened incubator. After an additional 60 minutes incubation time the signal is measured in a PerkinElmer Envision HTS Multilabel Reader using the AlphaScreen specs from PerkinElmer.
Each plate contains up to 16 wells of a negative control depending on the dilution procedure (platewise or serial) (DMSO instead of test compound; with KRAS mutant::SOS1 GOP mix and bead mix; column 23) and 16 wells of a positive control (DMSO instead of test compound; with KRAS mutant::SOS1 GOP mix w/o bead mix; column 24).
As internal control known inhibitors of KRAS mutant::SOS1 interaction can be measured on each compound plate.
IC50 values are calculated and analyzed with Boehringer Ingelheim's MEGALAB C50 application using a 4 parametric logistic model.
Tables of example compounds disclosed herein contain IC50 values determined using the above assays (see Table 43).

KRAS (G12C)::SOS1 protein-protein interaction, sequence (P01116 other isoform, or with tags, fused parts or gaps G12C/C51S/C80L/C118S): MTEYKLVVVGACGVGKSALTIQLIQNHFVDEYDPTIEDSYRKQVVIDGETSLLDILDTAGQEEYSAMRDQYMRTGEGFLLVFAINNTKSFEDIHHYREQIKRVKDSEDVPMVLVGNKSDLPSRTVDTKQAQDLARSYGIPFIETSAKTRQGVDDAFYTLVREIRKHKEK

| Compound | IC50 |
| --- | --- |
| Cc1nc2c(O[C@@H](C)[C@@H]3CCCN3C)nc(-c3onc4c3CCC[C@@]43CCCc4sc(N)c(C#N)c43)nc2n1[C@@H]1CCOC1 [I-39] | 2 nM |
| CCn1c(=O)n([C@@H]2CCCOC2)c2nc(-c3onc4c3CCC[C@@]43CCCc4sc(N)c(C#N)c43)nc(O[C@@H](C)[C@@H]3CCCN3C)c21 [I-30] | 2 nM |
| C[C@H](Oc1nc(-c2onc3c2CCC[C@@]32CCCc3sc(N)c(C#N)c32)nc2c1n(C)c(=O)n2[C@H]1CC2CCC1O2)[C@@H]1CCCN1C (stereo partly drawn) [I-17] | 2 nM |
| CO[C@H]1CCN(C)[C@@H]1[C@H](C)Oc1nc(-c2noc3c2CCC[C@@]32CCCc3sc(N)c(C#N)c32)nc2c1n(C)c(=O)n2[C@@H]1CCOC1 [II-1] | 1 nM |
| CCn1c(=O)n([C@@H]2CCCOC2)c2nc(-c3onc4c3CCC[C@@]43CCCc4sc(N)c(C#N)c43)nc(OCC34CCCN3CCC4)c21 [I-34] | 6 nM |
| C[C@H](Oc1nc(-c2noc3c2CCC[C@@]32CCCc3sc(N)c(C#N)c32)nc2c1cnn2[C@@H]1CCOC1)[C@@H]1CCCN1C [II-4] | 2 nM |

Tested on: MKN1 cells
Assay: MKN1 CTG proliferation assay (120 h) (gastric cancer, wt amplified)
Format: cell-based
Settings: Homo sapiens, MKN-1
Method: MKN1 cells (JCRB0252) are dispensed into black 384-well plates, flat and clear bottom (Greiner, PNr. 781091) at a density of 200 cells per well in 60 μl RPMI-1640 ATCC-Formulation (Gibco #A10491)+10% FCS (fetal calf serum, HyClone, SH30084.03). Cells are incubated overnight at 37° C. in a humidified tissue culture incubator at 5% CO2. Compounds (10 mM stock in DMSO) are added at logarithmic dose series using the ECHO acoustic liquid handler system (Beckman Coulter), normalizing for added DMSO and including DMSO controls. All compound treatments are performed in technical duplicates. For the TO time point measurement, untreated cells are analyzed at the time of compound addition. Plates are incubated for 120 h, and cell viability is measured using CellTiter-Glo luminescent cell viability reagent (Promega product code G7570). Viability (stated as percent of control) is defined as relative luminescence units RLU of each well divided by the RLU of cells in DMSO controls. IC50 values are determined from viability measurements by non-linear regression using a four-parameter model.
IC50 values of representative compounds according to the invention measured with these assays in the indicated cell lines are presented in Table 46.

| Compound | IC50 |
| --- | --- |
| Cc1nc2c(O[C@@H](C)[C@@H]3CCCN3C)nc(-c3onc4c3CCC[C@@]43CCCc4sc(N)c(C#N)c43)nc2n1[C@@H]1CCOC1 [I-39] | 29 nM |
| CCn1c(=O)n([C@@H]2CCCOC2)c2nc(-c3onc4c3CCC[C@@]43CCCc4sc(N)c(C#N)c43)nc(O[C@@H](C)[C@@H]3CCCN3C)c21 [I-30] | 39 nM |
| C[C@H](Oc1nc(-c2onc3c2CCC[C@@]32CCCc3sc(N)c(C#N)c32)nc2c1n(C)c(=O)n2[C@H]1CC2CCC1O2)[C@@H]1CCCN1C (stereo partly drawn) [I-17] | 325 nM |
| CO[C@H]1CCN(C)[C@@H]1[C@H](C)Oc1nc(-c2noc3c2CCC[C@@]32CCCc3sc(N)c(C#N)c32)nc2c1n(C)c(=O)n2[C@@H]1CCOC1 [II-1] | 6 nM |
| CCn1c(=O)n([C@@H]2CCCOC2)c2nc(-c3onc4c3CCC[C@@]43CCCc4sc(N)c(C#N)c43)nc(OCC34CCCN3CCC4)c21 [I-34] | 3400 nM |
| C[C@H](Oc1nc(-c2noc3c2CCC[C@@]32CCCc3sc(N)c(C#N)c32)nc2c1cnn2[C@@H]1CCOC1)[C@@H]1CCCN1C [II-4] | 63 nM |

Molecular target: KRAS (G12D)::SOS1 protein-protein interaction (Homo sapiens (Human), UniProt P01116, G12D)
Assay: KRAS::SOS1 AlphaScreen binding assay (KRAS G12D)
Settings: GDP
How it was run: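 AlphaScreen assay with KRAS G12D (1-169, 6His/avi-tagged, 10 nM), GST-SOS1 564-1049 (5 nM) and GDP (10 μM) in PBS, 0.1% BSA, 0.05% Tween 20; compound up to 100 μM top concentration, eleven fivefold dilutions in duplicate. After 30 min, glutathione acceptor and streptavidin donor beads (10 μg/mL each) were added and signal read after a further 60 min at room temperature in the dark; IC50 from 4-parameter logistic fit.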

KRAS (G12D)::SOS1 protein-protein interaction, sequence (P01116 other isoform, or with tags, fused parts or gaps G12D): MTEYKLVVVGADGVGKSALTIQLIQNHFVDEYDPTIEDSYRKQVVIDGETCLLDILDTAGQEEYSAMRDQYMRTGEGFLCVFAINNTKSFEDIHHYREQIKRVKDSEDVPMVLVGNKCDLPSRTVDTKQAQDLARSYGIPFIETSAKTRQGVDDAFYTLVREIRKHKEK

| Compound | IC50 |
| --- | --- |
| Cc1nc2c(O[C@@H](C)[C@@H]3CCCN3C)nc(-c3onc4c3CCC[C@@]43CCCc4sc(N)c(C#N)c43)nc2n1[C@@H]1CCOC1 [I-39] | 1 nM |
| CCn1c(=O)n([C@@H]2CCCOC2)c2nc(-c3onc4c3CCC[C@@]43CCCc4sc(N)c(C#N)c43)nc(O[C@@H](C)[C@@H]3CCCN3C)c21 [I-30] | 2 nM |
| C[C@H](Oc1nc(-c2onc3c2CCC[C@@]32CCCc3sc(N)c(C#N)c32)nc2c1n(C)c(=O)n2[C@H]1CC2CCC1O2)[C@@H]1CCCN1C (stereo partly drawn) [I-17] | 2 nM |
| CO[C@H]1CCN(C)[C@@H]1[C@H](C)Oc1nc(-c2noc3c2CCC[C@@]32CCCc3sc(N)c(C#N)c32)nc2c1n(C)c(=O)n2[C@@H]1CCOC1 [II-1] | 1 nM |
| CCn1c(=O)n([C@@H]2CCCOC2)c2nc(-c3onc4c3CCC[C@@]43CCCc4sc(N)c(C#N)c43)nc(OCC34CCCN3CCC4)c21 [I-34] | 22 nM |
| C[C@H](Oc1nc(-c2noc3c2CCC[C@@]32CCCc3sc(N)c(C#N)c32)nc2c1cnn2[C@@H]1CCOC1)[C@@H]1CCCN1C [II-4] | 1 nM |

Tested on: not listed separately
Assay: Solubility measurement (DMSO solution precipitation method)
Format: physicochemical
Settings: aqueous buffer, kinetic from dmso stock, McIlvaine buffer pH 4.5, 24 h, read-out: solubility pH 4.5
How it was run: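 A 10 mM DMSO stock was diluted to 250 μM final in McIlvaine buffer at pH 4.5 or 6.8, then shaken 24 h at ambient temperature. After filtering off precipitate, filtrate concentration was quantified by LC-UV against a fully dissolved reference in acetonitrile/water (1:1).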

| Compound | solubility at 24 h |
| --- | --- |
| Cc1nc2c(O[C@@H](C)[C@@H]3CCCN3C)nc(-c3onc4c3CCC[C@@]43CCCc4sc(N)c(C#N)c43)nc2n1[C@@H]1CCOC1 [I-39] | > 147 µg/mL |
| CCn1c(=O)n([C@@H]2CCCOC2)c2nc(-c3onc4c3CCC[C@@]43CCCc4sc(N)c(C#N)c43)nc(O[C@@H](C)[C@@H]3CCCN3C)c21 [I-30] | > 154 µg/mL |
| C[C@H](Oc1nc(-c2onc3c2CCC[C@@]32CCCc3sc(N)c(C#N)c32)nc2c1n(C)c(=O)n2[C@H]1CC2CCC1O2)[C@@H]1CCCN1C (stereo partly drawn) [I-17] | > 155 µg/mL |
| CO[C@H]1CCN(C)[C@@H]1[C@H](C)Oc1nc(-c2noc3c2CCC[C@@]32CCCc3sc(N)c(C#N)c32)nc2c1n(C)c(=O)n2[C@@H]1CCOC1 [II-1] | > 161 µg/mL |
| CCn1c(=O)n([C@@H]2CCCOC2)c2nc(-c3onc4c3CCC[C@@]43CCCc4sc(N)c(C#N)c43)nc(OCC34CCCN3CCC4)c21 [I-34] | > 158 µg/mL |
| C[C@H](Oc1nc(-c2noc3c2CCC[C@@]32CCCc3sc(N)c(C#N)c32)nc2c1cnn2[C@@H]1CCOC1)[C@@H]1CCCN1C [II-4] | > 139 µg/mL |

Same assay, conditions: aqueous buffer, kinetic from dmso stock, McIlvaine buffer pH 6.8, 24 h, read-out: solubility pH 6.8

| Compound | solubility at 24 h |
| --- | --- |
| Cc1nc2c(O[C@@H](C)[C@@H]3CCCN3C)nc(-c3onc4c3CCC[C@@]43CCCc4sc(N)c(C#N)c43)nc2n1[C@@H]1CCOC1 [I-39] | > 137 µg/mL |
| CCn1c(=O)n([C@@H]2CCCOC2)c2nc(-c3onc4c3CCC[C@@]43CCCc4sc(N)c(C#N)c43)nc(O[C@@H](C)[C@@H]3CCCN3C)c21 [I-30] | 88 µg/mL (≈ 134 µM) |
| C[C@H](Oc1nc(-c2onc3c2CCC[C@@]32CCCc3sc(N)c(C#N)c32)nc2c1n(C)c(=O)n2[C@H]1CC2CCC1O2)[C@@H]1CCCN1C (stereo partly drawn) [I-17] | > 148 µg/mL |
| CO[C@H]1CCN(C)[C@@H]1[C@H](C)Oc1nc(-c2noc3c2CCC[C@@]32CCCc3sc(N)c(C#N)c32)nc2c1n(C)c(=O)n2[C@@H]1CCOC1 [II-1] | 37 µg/mL (≈ 56 µM) |
| CCn1c(=O)n([C@@H]2CCCOC2)c2nc(-c3onc4c3CCC[C@@]43CCCc4sc(N)c(C#N)c43)nc(OCC34CCCN3CCC4)c21 [I-34] | > 148 µg/mL |
| C[C@H](Oc1nc(-c2noc3c2CCC[C@@]32CCCc3sc(N)c(C#N)c32)nc2c1cnn2[C@@H]1CCOC1)[C@@H]1CCCN1C [II-4] | 104 µg/mL (≈ 173 µM) |
